# “And” between values parts separate entries of the source, which are not always exact repeats. Identical values can stand only once. Inconclusive results and toxic doses are left out.
# System: CD2F1 mice, L1210 leukemia ip, survival T/C
# Experiment: NCI In Vivo Anticancer Drug Screen. Data for tumor model L1210 Leukemia (intraperitoneal) in CD2F1 (CDF1) mice
# Conditions: higher = longer survival
# Procedure, shortened: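 Antitumor effect is scored in animals hosting a serially transplanted tumor. Values compare compound-dosed animals against vehicle-only controls as a simple quotient.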
# [1] = endpoint: mean survival time, dose: 25.0 mg/kg/injection, schedule: Q01DX001 (ip), vehicle: saline with Tween-80
# [2] = endpoint: mean survival time, dose: 50.0 mg/kg/injection, schedule: Q01DX001 (ip), vehicle: saline with Tween-80
# [3] = endpoint: mean survival time, dose: 100.0 mg/kg/injection, schedule: Q01DX001 (ip), vehicle: saline with Tween-80
smiles,measurement,setting,value
CCN(CC)CCNc1ccc(CO)c2sc3ccccc3c(=O)c12,T/C,"endpoint: mean survival time, dose: 4.0 mg/kg/injection, schedule: Q03HX008 (ip), vehicle: saline",101 % of control
same,T/C,"endpoint: mean survival time, dose: 4.0 mg/kg/injection, schedule: Q03HX016 (ip), vehicle: saline",104 % of control
same,T/C,"endpoint: mean survival time, dose: 4.0 mg/kg/injection, schedule: Q03HX024 (ip), vehicle: saline",110 % of control
same,T/C,"endpoint: mean survival time, dose: 8.0 mg/kg/injection, schedule: Q03HX008 (ip), vehicle: saline",112 % of control
same,T/C,"endpoint: mean survival time, dose: 8.0 mg/kg/injection, schedule: Q03HX016 (ip), vehicle: saline",108 % of control
same,T/C,"endpoint: mean survival time, dose: 8.0 mg/kg/injection, schedule: Q03HX024 (ip), vehicle: saline",117 % of control
same,T/C,"endpoint: mean survival time, dose: 12.5 mg/kg/injection, schedule: Q01DX009 (ip), vehicle: Klucel (hydroxypropylcellulose) (HPC)",106 % of control
same,T/C,"endpoint: mean survival time, dose: 16.0 mg/kg/injection, schedule: Q03HX008 (ip), vehicle: saline",105 % of control
same,T/C,"endpoint: mean survival time, dose: 16.0 mg/kg/injection, schedule: Q03HX016 (ip), vehicle: saline",110 % of control
same,T/C,"endpoint: mean survival time, dose: 16.0 mg/kg/injection, schedule: Q03HX024 (ip), vehicle: saline",151 % of control
same,T/C,"endpoint: mean survival time, dose: 25.0 mg/kg/injection, schedule: Q01DX009 (ip), vehicle: Klucel (hydroxypropylcellulose) (HPC)",102 % of control
same,T/C,"endpoint: mean survival time, dose: 32.0 mg/kg/injection, schedule: Q01DX001 (ip), vehicle: saline",107 % of control
same,T/C,"endpoint: mean survival time, dose: 32.0 mg/kg/injection, schedule: Q01DX001 (sc), vehicle: saline",116 % of control
same,T/C,"endpoint: mean survival time, dose: 32.0 mg/kg/injection, schedule: Q03HX016 (ip), vehicle: saline",117 % of control
same,T/C,"endpoint: mean survival time, dose: 32.0 mg/kg/injection, schedule: Q03HX024 (ip), vehicle: saline",184 % of control
same,T/C,"endpoint: mean survival time, dose: 32.0 mg/kg/injection, schedule: Q04DX003 (ip), vehicle: saline",116 % of control
same,T/C,"endpoint: mean survival time, dose: 32.0 mg/kg/injection, schedule: Q08DX002 (ip), vehicle: saline",114 % of control
same,T/C,"endpoint: mean survival time, dose: 50.0 mg/kg/injection, schedule: Q01DX009 (ip), vehicle: Klucel (hydroxypropylcellulose) (HPC)",120 % of control
same,T/C,"endpoint: mean survival time, dose: 64.0 mg/kg/injection, schedule: Q01DX001 (ip), vehicle: saline",108 % of control
same,T/C,"endpoint: mean survival time, dose: 64.0 mg/kg/injection, schedule: Q01DX001 (sc), vehicle: saline",111 % of control
same,T/C,"endpoint: mean survival time, dose: 64.0 mg/kg/injection, schedule: Q01DX009 (ip), vehicle: saline",174 % of control
same,T/C,"endpoint: mean survival time, dose: 64.0 mg/kg/injection, schedule: Q01DX009 (oral), vehicle: saline",121 % of control
same,T/C,"endpoint: mean survival time, dose: 64.0 mg/kg/injection, schedule: Q01DX009 (sc), vehicle: saline",156 % of control
same,T/C,"endpoint: mean survival time, dose: 64.0 mg/kg/injection, schedule: Q03HX008 (ip), vehicle: saline",150 % of control
same,T/C,"endpoint: mean survival time, dose: 64.0 mg/kg/injection, schedule: Q03HX016 (ip), vehicle: saline",151 % of control
same,T/C,"endpoint: mean survival time, dose: 64.0 mg/kg/injection, schedule: Q03HX024 (ip), vehicle: saline",94 % of control
same,T/C,"endpoint: mean survival time, dose: 64.0 mg/kg/injection, schedule: Q08DX002 (ip), vehicle: saline",113 % of control
same,T/C,"endpoint: mean survival time, dose: 120.0 mg/kg/injection, schedule: Q01DX001 (ip), vehicle: acetone",113 % of control
same,T/C,"endpoint: mean survival time, dose: 120.0 mg/kg/injection, schedule: Q01DX009 (ip), vehicle: acetone",118 % of control
same,T/C,"endpoint: mean survival time, dose: 128.0 mg/kg/injection, schedule: Q01DX001 (ip), vehicle: saline",110 % of control
same,T/C,"endpoint: mean survival time, dose: 128.0 mg/kg/injection, schedule: Q01DX001 (sc), vehicle: saline",115 % of control
same,T/C,"endpoint: mean survival time, dose: 128.0 mg/kg/injection, schedule: Q01DX009 (ip), vehicle: saline",101 % of control
same,T/C,"endpoint: mean survival time, dose: 128.0 mg/kg/injection, schedule: Q01DX009 (sc), vehicle: saline",111 % of control
same,T/C,"endpoint: mean survival time, dose: 128.0 mg/kg/injection, schedule: Q08DX002 (ip), vehicle: saline",111 % of control
same,T/C,"endpoint: mean survival time, dose: 180.0 mg/kg/injection, schedule: Q01DX001 (ip), vehicle: acetone",106 % of control
same,T/C,"endpoint: mean survival time, dose: 256.0 mg/kg/injection, schedule: Q01DX001 (ip), vehicle: saline",122 % of control
same,T/C,"endpoint: mean survival time, dose: 256.0 mg/kg/injection, schedule: Q01DX001 (oral), vehicle: saline",110 % of control
same,T/C,"endpoint: mean survival time, dose: 256.0 mg/kg/injection, schedule: Q01DX001 (sc), vehicle: saline",115 % of control
same,T/C,"endpoint: mean survival time, dose: 256.0 mg/kg/injection, schedule: Q01DX009 (oral), vehicle: saline",124 % of control
same,T/C,"endpoint: mean survival time, dose: 400.0 mg/kg/injection, schedule: Q01DX001 (ip), vehicle: acetone",120 % of control
same,T/C,"endpoint: mean survival time, dose: 512.0 mg/kg/injection, schedule: Q01DX001 (oral), vehicle: saline",117 % of control
same,T/C,"endpoint: median survival time, dose: 10.0 mg/kg/injection, schedule: Q01DX009 (ip), vehicle: water",102 % of control
same,T/C,"endpoint: median survival time, dose: 40.0 mg/kg/injection, schedule: Q01DX009 (ip), vehicle: water",150 % of control
same,T/C,"endpoint: median survival time, dose: 160.0 mg/kg/injection, schedule: Q01DX009 (ip), vehicle: water",103 % of control
CCCCC1C/C=C/C=C/C=C/C=C/C(OC2OC(C)C(O)C(N)C2O)CC2OC(O)(CC(O)CC3OC3/C=C/C(=O)O1)CC(O)C2C(=O)O (stereo unspecified),T/C,"endpoint: mean survival time, dose: 3.5 mg/kg/injection, schedule: Q01DX009 (ip), vehicle: saline sonified",104 % of control
same,T/C,"endpoint: mean survival time, dose: 3.5 mg/kg/injection, schedule: Q04DX003 (ip), vehicle: saline sonified",91 % of control
same,T/C,"endpoint: mean survival time, dose: 7.0 mg/kg/injection, schedule: Q01DX009 (ip), vehicle: saline sonified",101 % of control
same,T/C,"endpoint: mean survival time, dose: 7.0 mg/kg/injection, schedule: Q04DX003 (ip), vehicle: saline sonified",93 % of control
same,T/C,"endpoint: mean survival time, dose: 14.0 mg/kg/injection, schedule: Q01DX009 (ip), vehicle: saline sonified",87 % of control
same,T/C,"endpoint: mean survival time, dose: 14.0 mg/kg/injection, schedule: Q04DX003 (ip), vehicle: saline sonified",91 % of control
O=C(O/N=C(\CN1CCCC1)c1ccc(Cl)cc1)c1ccccc1,T/C,"endpoint: mean survival time, dose: 100.0 mg/kg/injection, schedule: Q01DX001 (ip), vehicle: Klucel (hydroxypropylcellulose) (HPC)",95 % of control
same,T/C,"endpoint: mean survival time, dose: 200.0 mg/kg/injection, schedule: Q01DX001 (ip), vehicle: Klucel (hydroxypropylcellulose) (HPC)",95 % of control
same,T/C,"endpoint: mean survival time, dose: 400.0 mg/kg/injection, schedule: Q01DX001 (ip), vehicle: Klucel (hydroxypropylcellulose) (HPC)",93 % of control
CN1CCN(CCCN2CC3CC=CCC3C2)CC1 (stereo unspecified),T/C,"endpoint: mean survival time, dose: 100.0 mg/kg/injection, schedule: Q04DX003 (ip), vehicle: saline",105 % of control
same,T/C,"endpoint: mean survival time, dose: 200.0 mg/kg/injection, schedule: Q04DX003 (ip), vehicle: saline",100 % of control
c1ccc2c[n+]3ccccc3cc2c1,T/C,"endpoint: mean survival time, dose: 12.5 mg/kg/injection, schedule: Q04DX003 (ip), vehicle: saline",97 % of control
same,T/C,"endpoint: mean survival time, dose: 25.0 mg/kg/injection, schedule: Q04DX003 (ip), vehicle: saline",98 % of control
COc1cccc2c1CCC1(O)OC(=O)CC21 (stereo unspecified),T/C,"endpoint: mean survival time, dose: 100.0 mg/kg/injection, schedule: Q01DX001 (ip), vehicle: saline",98 % of control
same,T/C,"endpoint: mean survival time, dose: 200.0 mg/kg/injection, schedule: Q01DX001 (ip), vehicle: saline",98 % of control
same,T/C,"endpoint: mean survival time, dose: 400.0 mg/kg/injection, schedule: Q01DX001 (ip), vehicle: saline",95 % of control
CC1CCC(C(C)C)C(NCCO)C1 (stereo unspecified),T/C,"endpoint: mean survival time, dose: 18.8 mg/kg/injection, schedule: Q01DX009 (ip), vehicle: saline",96 % of control
same,T/C,"endpoint: mean survival time, dose: 37.5 mg/kg/injection, schedule: Q01DX009 (ip), vehicle: saline",97 % of control
same,T/C,"endpoint: mean survival time, dose: 75.0 mg/kg/injection, schedule: Q01DX009 (ip), vehicle: saline",100 % of control
CCN(CC)Cc1cc(Nc2c3ccc(Cl)cc3nc3ccc(OC)nc23)ccc1O,T/C,[1],94 % of control
same,T/C,[2],94 % of control
same,T/C,[3],90 % of control
same,T/C,"endpoint: mean survival time, dose: 200.0 mg/kg/injection, schedule: Q01DX001 (ip), vehicle: saline with Tween-80",95 % of control
same,T/C,"endpoint: mean survival time, dose: 400.0 mg/kg/injection, schedule: Q01DX001 (ip), vehicle: saline with Tween-80",91 % of control
CCCP(=O)(CCC)CCC,T/C,[1],94 % of control
same,T/C,[2],96 % of control
same,T/C,[3],94 % of control
CC(C#N)(C#N)N=Nc1ccc(Cl)cc1Cl,T/C,"endpoint: mean survival time, dose: 12.5 mg/kg/injection, schedule: Q01DX009 (ip), vehicle: saline with Tween-80",96 % of control and 102 % of control
same,T/C,"endpoint: mean survival time, dose: 25.0 mg/kg/injection, schedule: Q01DX009 (ip), vehicle: saline with Tween-80",100 % of control and 104 % of control
same,T/C,"endpoint: mean survival time, dose: 50.0 mg/kg/injection, schedule: Q01DX009 (ip), vehicle: saline with Tween-80",98 % of control and 107 % of control
same,T/C,"endpoint: mean survival time, dose: 100.0 mg/kg/injection, schedule: Q01DX009 (ip), vehicle: saline with Tween-80",101 % of control and 107 % of control
same,T/C,"endpoint: mean survival time, dose: 200.0 mg/kg/injection, schedule: Q01DX009 (ip), vehicle: saline with Tween-80",101 % of control and 111 % of control
same,T/C,"endpoint: mean survival time, dose: 400.0 mg/kg/injection, schedule: Q01DX009 (ip), vehicle: saline with Tween-80",113 % of control and 102 % of control
CCN(CC)Cc1cc2[nH]c3c4ccc(Cl)cc4ncc3c2cc1OC,T/C,"endpoint: median survival time, dose: 6.25 mg/kg/injection, schedule: Q01DX009 (ip), vehicle: saline with Tween-80",102 % of control
same,T/C,"endpoint: median survival time, dose: 12.5 mg/kg/injection, schedule: Q01DX009 (ip), vehicle: saline with Tween-80",102 % of control
same,T/C,"endpoint: median survival time, dose: 25.0 mg/kg/injection, schedule: Q01DX009 (ip), vehicle: saline with Tween-80",103 % of control
same,T/C,"endpoint: median survival time, dose: 50.0 mg/kg/injection, schedule: Q01DX009 (ip), vehicle: saline with Tween-80",111 % of control

# Source: PubChem BioAssay AID256 (DTP/NCI, 2004)
